Counter-ions that a name gives are not always drawn.

The melting point is the temperature, or range, at which the solid turns liquid. `COc1ccc(/C(=N/OCCN)c2cc3ccncc3[nH]2)cc1` (single isomer, unassigned) (as salt: hydrochloride) [Example 124, (4-Methoxyphenyl)(1H-pyrrolo[2,3-c]pyridin-2-yl)methanone O-(2-aminoethyl)oxime dihydrochloride]: the melting point was in the range of 178 to 184 °C. To `Cc1ccc(/C(=N/OCCN)c2cc3ccncc3[nH]2)cc1` (single isomer, unassigned) (as salt: trifluoroacetate) [Example 119, (4-Methylphenyl)(1H-pyrrolo[2,3-c]pyridin-2-yl)methanone O-(2-aminoethyl)oxime bis(hydrogen trifluoroacetate)] belongs 190 to 194 °C; to `NCCO/N=C(/c1ccc(Cl)cc1)c1cc2ccncc2[nH]1` (single isomer, unassigned) (as salt: trifluoroacetate) [Example 126, (4-Chlorophenyl)(1H-pyrrolo[2,3-c]pyridin-2-yl)methanone O-(2-aminoethyl)oxime bis(hydrogen trifluoroacetate)], 146 to 150 °C; to `CC(C)(C)OC(=O)NCCO/N=C(\c1ccc(Cl)cc1)c1cc2ccncc2[nH]1` (single isomer, unassigned) [Example 116, tert-Butyl 2-[[[(4-chlorophenyl)(1H-pyrrolo[2,3-c]pyridin-2-yl)methylene]amino]oxy]ethylcarbamate], 166 to 169 °C. The value for `OCc1cc2ccnc(Cl)c2[nH]1` [Example 1, (7-Chloro-1H-pyrrolo[2,3-c]pyridin-2-yl)methanol] was 185 to 187 °C; that for `O=C(NCc1ccccc1)c1cc2ccnc(Cl)c2[nH]1` [Example 2, N-Benzyl-7-chloro-1H-pyrrolo[2,3-c]pyridine-2-carboxamide] was 217 to 220 °C. The value for `O=C(c1cc2ccnc(Cl)c2[nH]1)N1CCOCC1` [Example 3, 7-Chloro-2-(4-morpholinylcarbonyl)-1H-pyrrolo[2,3-c]pyridine] was 170 to 171 °C; that for `O=C(NCc1ccccn1)c1cc2ccnc(Cl)c2[nH]1` [Example 4, 7-Chloro-N-(2-pyridinylmethyl)-1H-pyrrolo[2,3-c]pyridine-2-carboxamide] was 177 to 183 °C.

For `O=C(NCc1cccnc1)c1cc2ccnc(Cl)c2[nH]1` [Example 5, 7-Chloro-N-(3-pyridinylmethyl)-1H-pyrrolo[2,3-c]pyridine-2-carboxamide], the melting point lay within 189 to 191 °C. Take `O=C(NCc1ccncc1)c1cc2ccnc(Cl)c2[nH]1` [Example 6, 7-Chloro-N-(4-pyridinylmethyl)-1H-pyrrolo[2,3-c]pyridine-2-carboxamide]: the melting point was above 340 °C.

Compound `O=C(NCc1ccco1)c1cc2ccnc(Cl)c2[nH]1` [Example 7, 7-Chloro-N-(2-furylmethyl)-1H-pyrrolo[2,3-c]pyridine-2-carboxamide] yielded a melting point of 205 to 209 °C.

`O=C(NCc1cccs1)c1cc2ccnc(Cl)c2[nH]1` [Example 8, 7-Chloro-N-(2-thienylmethyl)-1H-pyrrolo[2,3-c]pyridine-2-carboxamide] yielded a melting point of 179 to 181 °C. The value for `CC(=O)N1CCN(C(=O)c2cc3ccnc(Cl)c3[nH]2)CC1` [Example 12, 2-[(4-Acetyl-1-piperazinyl)carbonyl]-7-chloro-1H-pyrrolo[2,3-c]pyridine] was 179 to 184 °C; that for `O=C(c1cc2ccnc(Cl)c2[nH]1)N1CCCC1` [Example 13, 7-Chloro-2-(1-pyrrolidinylcarbonyl)-1H-pyrrolo[2,3-c]pyridine] was 152 to 154 °C; that for `O=C(c1cc2ccnc(Cl)c2[nH]1)N1CCSCC1` [Example 14, 7-Chloro-2-(4-thiomorpholinylcarbonyl)-1H-pyrrolo[2,3-c]pyridine] was 62 to 72 °C. To `O=C(Nc1ccccn1)c1cc2ccnc(Cl)c2[nH]1` [Example 20, 7-Chloro-N-(2-pyridinyl)-1H-pyrrolo[2,3-c]pyridine-2-carboxamide] belongs 94 to 102 °C.

As for `O=C(Nc1cccnc1)c1cc2ccnc(Cl)c2[nH]1` [Example 21, 7-Chloro-N-(3-pyridinyl)-1H-pyrrolo[2,3-c]pyridine-2-carboxamide], the melting point is above 320 °C. To `O=C(Nc1ccncc1)c1cc2ccnc(Cl)c2[nH]1` [Example 22, 7-Chloro-N-(4-pyridinyl)-1H-pyrrolo[2,3-c]pyridine-2-carboxamide] belongs above 320 °C; to `O=C(NCc1ccccn1)c1cc2ccncc2[nH]1` [Example 27, N-(2-Pyridinylmethyl)-1H-pyrrolo[2,3-c]pyridine-2-carboxamide], 230 to 236 °C; to `O=C(c1ccccc1)c1cc2ccnc(Cl)c2[nH]1` [Example 29, (7-Chloro-1H-pyrrolo[2,3-c]pyridin-2-yl)(phenyl)methanone], 152 to 153 °C.

`O=C(Nc1cccnc1)c1cc2ccncc2[nH]1` [Example 30, N-(3-Pyridinyl)-1H-pyrrolo[2,3-c]pyridine-2-carboxamide]: the melting point lay within 270 to 290 °C. `O=C(c1ccsc1)c1cc2ccncc2[nH]1` [Example 32, (1H-Pyrrolo[2,3-c]pyridin-2-yl)(thien-3-yl)methanone]: the melting point is 178 to 181 °C (dec.). In the case of `O=C(c1cc2ccncc2[nH]1)N1CCCC1` [Example 33, 2-(1-Pyrrolidinylcarbonyl)-1H-pyrrolo[2,3-c]pyridine], the melting point was 260 to 275 °C (dec.). To `O=C(c1ccccc1)c1cc2ccncc2[nH]1` [Example 35, Phenyl(1H-pyrrolo[2,3-c]pyridin-2-yl)methanone] belongs 245 to 247 °C.

In turn, `O=C(NCc1cccnc1)c1cc2ccnc(N(Cc3ccccc3)Cc3ccccc3)c2[nH]1` [Example 37, 7-(Dibenzylamino)-N-(3-pyridinylmethyl)-1H-pyrrolo[2,3-c]pyridine-2-carboxamide] gave a melting point of 105 to 108 °C. The value for `O=C(NCc1cccs1)c1cc2ccnc(N(Cc3ccccc3)Cc3ccccc3)c2[nH]1` [Example 38, 7-(Dibenzylamino)-N-(2-thienylmethyl)-1H-pyrrolo[2,3-c]pyridine-2-carboxamide] was 152 to 154 °C; that for `O/N=C(\c1ccccc1)c1cc2ccncc2[nH]1` [Example 39, Phenyl(1H-pyrrolo[2,3-c]pyridin-2-yl)methanone oxime] was 132 to 142 °C. The value for `O=C(NCc1ccncc1)c1cc2ccnc(N(Cc3ccccc3)Cc3ccccc3)c2[nH]1` [Example 41, 7-(Dibenzylamino)-N-(4-pyridinylmethyl)-1H-pyrrolo[2,3-c]pyridine-2-carboxamide] was 119 to 120 °C. In turn, `O=C(NCc1ccncc1)c1cc2ccnc(NCc3ccccc3)c2[nH]1` [Example 42, 7-(Benzylamino)-N-(4-pyridinylmethyl)-1H-pyrrolo[2,3-c]pyridine-2-carboxamide] showed a melting point of 199 to 200 °C. The value for `O=C(NC(c1ccccc1)c1cc2ccncc2[nH]1)c1cccnc1` (stereo not shown) [Example 43, N-[Phenyl(1H-pyrrolo[2,3-c]pyridin-2-yl)methyl]nicotinamide] was 178 to 188 °C; that for `OC(c1ccccc1)c1cc2ccnc(N(Cc3ccccc3)Cc3ccccc3)c2[nH]1` (stereo not shown) [Example 46, [7-(Dibenzylamino)-1H-pyrrolo[2,3-c]pyridin-2-yl](phenyl)methanol] was 53 to 61 °C; that for `O=C(c1ccccc1)c1cc2ccnc(N(Cc3ccccc3)Cc3ccccc3)c2[nH]1` [Example 47, [7-(Dibenzylamino)-1H-pyrrolo[2,3-c]pyridin-2-yl](phenyl)methanone] was 122 to 124 °C. In the case of `O=C(NC(c1ccccc1)c1cc2ccncc2[nH]1)c1ccncc1` (stereo not shown) [Example 49, N-[Phenyl (1H-pyrrolo[2,3-c]pyridin-2-yl)methyl]isonicotinamide], the melting point was in the range of 182 to 192 °C. To `O=C(NC(c1ccccc1)c1cc2ccncc2[nH]1)c1ccccn1` (stereo not shown) [Example 50, N-[Phenyl (1H-pyrrolo[2,3-c]pyridin-2-yl)methyl]-2-pyridinecarboxamide] belongs 102 to 110 °C.

`O=C(NC(c1ccccc1)c1cc2ccncc2[nH]1)c1ccccc1` (stereo not shown) [Example 51, N-[Phenyl(1H-pyrrolo[2,3-c]pyridin-2-yl)methyl]benzamide]: the melting point lay in the range of 206 to 208 °C.

`OC(c1ccccc1)c1cc2ccncc2[nH]1` (stereo not shown) [Example 52, Phenyl(1H-pyrrolo[2,3-c]pyridin-2-yl)methanol] registered a melting point of 178 to 180 °C.

With `CC(C)(C)OC(=O)CO/N=C(\c1ccccc1)c1cc2ccncc2[nH]1` [Example 58, tert-Butyl[[[phenyl(1H-pyrrolo[2,3-c]pyridin-2-yl)methylene]amino]oxy]acetate], the melting point was in the range of 47 to 52 °C.

`CC(C)(C)OC(=O)NCCO/N=C(\c1ccccc1)c1cc2ccncc2[nH]1` [Example 60, tert-Butyl 2-[[[phenyl(1H-pyrrolo[2,3-c]pyridin-2-yl)methylene]amino]oxy]ethylcarbamate]: the melting point is 84 to 88 °C. In turn, `O=C(O)CO/N=C(\c1ccccc1)c1cc2ccncc2[nH]1` [Example 66, [[[Phenyl(1H-pyrrolo[2,3-c]pyridin-2-yl)methylene]amino]oxy]acetic acid] came in with a melting point of 68 to 73 °C. To `Cl.NCCO/N=C(\c1ccccc1)c1cc2ccncc2[nH]1` [Example 67] belongs 176 to 184 °C (dec.); to `CC(=O)c1cc2ccncc2[nH]1` [Example 70, 1-(1H-Pyrrolo[2,3-c]pyridin-2-yl)ethanone], 236 to 242 °C (dec.); to `O=C(c1ccccc1)c1cc2cc(Cl)ncc2[nH]1` [Example 73, (5-Chloro-1H-pyrrolo[2,3-c]pyridin-2-yl)(phenyl)methanone], 194 to 197 °C. `CC(C)(C)OC(=O)NCCCO/N=C(\c1ccccc1)c1cc2ccncc2[nH]1` [Example 76, tert-Butyl 3-[[[phenyl(1H-pyrrolo[2,3-c]pyridin-2-yl)methylene]amino]oxy]propylcarbamate] came in with a melting point of 52 to 58 °C.

The values are drawn from patent US7608627B2, “6-azaindole compound” (Takeda Pharmaceutical Company Limited, priority 2005, dated 2009).
